The Deep4Chem optical property database
Each block holds one compound with its values, some of them ahead of it.

Test: solvent given as SMILES

SMILES: CN1C(=CC2=C([O-])C(=CC3=[N+](C)c4ccccc4C3(C)C)C2=C(C#N)C#N)C(C)(C)c2ccccc21
absorption maximum (in ClC(Cl)Cl): 684 nm

SMILES: Cc1csc2[n+]1[B-](F)(F)n1c(c3cccc4cccc1c43)=N2
absorption maximum (in C1CCOC1): 476 nm
absorption maximum (in CC#N): 470 nm
absorption maximum (in CCCCCC): 477 nm
absorption maximum (in Cc1ccccc1): 479 nm
absorption maximum (in ClCCl): 445 nm

SMILES: CN(C)CCNc1ccc([N+](=O)[O-])cc1[N+](=O)[O-]
absorption maximum (in C1CCCCC1): 334 nm
absorption maximum (in C1CCOC1): 352 nm
absorption maximum (in C1COCCO1): 348 nm
absorption maximum (in CC#N): 352 nm
absorption maximum (in CC(C)=O): 352 nm
absorption maximum (in CCCCCC): 330 nm
absorption maximum (in CCO): 348 nm
absorption maximum (in CCOC(C)=O): 347 nm
absorption maximum (in CN(C)C=O): 358 nm
absorption maximum (in CO): 350 nm
absorption maximum (in CS(C)=O): 363 nm
absorption maximum (in Cc1ccccc1): 347 nm
absorption maximum (in ClC(Cl)Cl): 350 nm
absorption maximum (in ClCCl): 352 nm

SMILES: N#Cc1c(N2CCCCC2)cc(-c2ccc(-c3ccccc3)s2)c2c1CCc1ccccc1-2
absorption maximum (in C1CCOC1): 345 nm

SMILES: CC1(C)c2cc(/C=C/c3nc(/C=C/c4ccc5c(c4)C(C)(C)c4cc(N(c6ccccc6)c6ccc7ccccc7c6)ccc4-5)nc(/C=C/c4ccc5c(c4)C(C)(C)c4cc(N(c6ccccc6)c6ccc7ccccc7c6)ccc4-5)n3)ccc2-c2ccc(N(c3ccccc3)c3ccc4ccccc4c3)cc21
absorption maximum (in C1CCOC1): 403 nm

SMILES: FC(F)(F)c1ccc(/C2=C3N=C(C(c4ccccc4)=C/3c3ccccc3)/C(c3ccc(C(F)(F)F)cc3)=c3\[nH]/c(c(-c4ccccc4)c3-c3ccccc3)=C(/c3ccc(C(F)(F)F)cc3)C3=N/C(=C(/c4ccc(C(F)(F)F)cc4)c4[nH]c2c(-c2ccccc2)c4-c2ccccc2)C(c2ccccc2)=C3c2ccccc2)cc1
absorption maximum (in ClCCl): 708 nm

SMILES: Cc1csc2[n+]1[B-](F)(F)OC(c1ccc(N(C)C)cc1)=N2
absorption maximum (in C1CCOC1): 405 nm
absorption maximum (in CC#N): 403 nm
absorption maximum (in Cc1ccccc1): 407 nm
absorption maximum (in ClCCl): 406 nm

SMILES: CCc1ccc(-c2nc(-c3ccc(-n4c5ccccc5c5ccccc54)cc3)cc(-c3ccc(-n4c5ccccc5c5ccccc54)cc3)n2)cc1
absorption maximum (in C1CCOC1): 343 nm
absorption maximum (in CN(C)C=O): 344 nm
absorption maximum (in Cc1ccccc1): 354 nm
absorption maximum (in ClC(Cl)Cl): 344 nm

SMILES: CN(C)CCCN1c2ccccc2CCc2ccccc21
absorption maximum (in CC#N): 276 nm
absorption maximum (in CO): 274 nm
absorption maximum (in O): 275 nm

SMILES: COc1ccccc1-c1c2ccc(=[N+]3CCCCC3)cc-2oc2cc(N3CCCCC3)ccc12
absorption maximum (in CCO): 564 nm
absorption maximum (in ClCCl): 566 nm

SMILES: O=c1oc2ccc3ccccc3c2nc1-c1ccc(Cl)cc1
absorption maximum (in c1ccccc1): 404 nm

SMILES: CC(=O)c1ccc(-c2cnc3nn4ccccc4c3c2)cc1
absorption maximum (in C1CCOC1): 386 nm

SMILES: N#Cc1ccc(C2=Cc3ccccc3P2(=O)c2ccccc2)cc1 (stereo not drawn)
absorption maximum (in ClCCl): 350 nm

SMILES: CC(C)(C(=O)c1ccc(N2c3ccccc3Oc3ccccc32)cc1)C(=O)c1ccc(N2c3ccccc3Oc3ccccc32)cc1
absorption maximum (in Cc1ccccc1): 416 nm

SMILES: Nc1ccc2c(c1)C(=O)c1ccccc1-2
absorption maximum (in C1CCCCC1): 455 nm
absorption maximum (in CC#N): 481 nm
absorption maximum (in CCO): 488 nm
absorption maximum (in c1ccccc1): 469 nm

SMILES: CCCCC(CC)CO[N+](=O)[O-] (stereo not drawn)
absorption maximum (in CO): 218 nm
absorption maximum (in O): 198 nm

SMILES: COc1ccc(C2=C3C(/C=C/c4cc(OC)c(OC)c(OC)c4)=C(C=O)C(/C=C/c4cc(OC)c(OC)c(OC)c4)=[N+]3[B-](F)(F)n3c(/C=C/c4cc(OC)c(OC)c(OC)c4)c(C=O)c(C=Cc4cc(OC)c(OC)c(OC)c4)c32)cc1
absorption maximum (in ClCCl): 688 nm

SMILES: CCCCN1C(=S)c2cccc3c(OC)ccc(c23)C1=S
absorption maximum (in CC#N): 476 nm
absorption maximum (in CS(C)=O): 483 nm
absorption maximum (in Cc1ccccc1): 468 nm

SMILES: O=C1c2ccc(-c3ccc(N(c4ccccc4)c4ccccc4)cc3)cc2C(=O)c2ccc(-c3ccc(N(c4ccccc4)c4ccccc4)cc3)cc21
absorption maximum (in Cc1ccccc1): 454 nm

SMILES: CC1(C)Cc2c(c3ccccc3c3nc4c(nc23)c2c(c3ccccc34)OC(C)(C)C2)O1
absorption maximum (in C1CCCCC1): 451.06 nm
absorption maximum (in C1COCCO1): 453.93 nm
absorption maximum (in CC#N): 454.96 nm
absorption maximum (in CC(C)O): 452.08 nm
absorption maximum (in CCCCCC): 450.05 nm
absorption maximum (in ClC(Cl)Cl): 457.04 nm
absorption maximum (in c1ccccc1): 454.96 nm

SMILES: CN1C(=CC2=C([O-])C(=CC3=[N+](C)c4ccccc4C3(C)C)C2=C2C(=O)NC(=O)NC2=O)C(C)(C)c2ccccc21
absorption maximum (in ClC(Cl)Cl): 644 nm

SMILES: CC1=C(Cc2ccccc2)C(C)=[N+]2C1=C(C)c1c(C)c(-c3csc(N4CCOCC4)n3)c(C)n1[B-]2(F)F
absorption maximum (in C1CCOC1): 525 nm
absorption maximum (in C1COCCO1): 524 nm
absorption maximum (in CC#N): 517 nm
absorption maximum (in CC(C)O): 518 nm
absorption maximum (in CCO): 516 nm
absorption maximum (in CCOC(C)=O): 523 nm
absorption maximum (in CN(C)C=O): 526 nm
absorption maximum (in CO): 514 nm
absorption maximum (in CS(C)=O): 522 nm
absorption maximum (in Cc1ccccc1): 527 nm
absorption maximum (in ClC(Cl)Cl): 523 nm
absorption maximum (in ClCCl): 522 nm

SMILES: CC1(C)C(/C=C/C2=C(Oc3ccc(CCN=C=S)cc3F)C(=C/C=C3/N(CCCS(=O)(=O)[O-])c4ccccc4C3(C)C)/CCC2)=[N+](CCCS(=O)(=O)[O-])c2ccccc21
absorption maximum (in CO): 768 nm

SMILES: Cc1ccc(-n2cccc2)cc1
absorption maximum (in CC#N): 254 nm
absorption maximum (in CCCCCC): 254 nm

SMILES: Cc1cc(C2(c3cc(C)c(O)c(Br)c3)OS(=O)(=O)c3ccccc32)cc(Br)c1O
absorption maximum (in C1CCOC1): 396 nm
absorption maximum (in C1COCCO1): 396 nm
absorption maximum (in CC#N): 398 nm
absorption maximum (in CC(C)(C)O): 411 nm
absorption maximum (in CC(C)=O): 394 nm
absorption maximum (in CC(C)O): 413 nm
absorption maximum (in CCCCCO): 417 nm
absorption maximum (in CCCO): 415 nm
absorption maximum (in CCO): 414 nm
absorption maximum (in CCOC(C)=O): 395 nm
absorption maximum (in CCOCC): 395 nm

SMILES: CCCCCCCCCCCCCCCC[n+]1ccc(/C=C(\C)c2ccccc2)cc1
absorption maximum (in C1COCCO1): 387.4 nm
absorption maximum (in CC(C)=O): 383.2 nm
absorption maximum (in CC(C)O): 385.4 nm
absorption maximum (in CCCCCC): 398.5 nm
absorption maximum (in CCCCO): 390.5 nm
absorption maximum (in CCCO): 398.5 nm
absorption maximum (in CCO): 399.5 nm
absorption maximum (in CN(C)C=O): 384.4 nm
absorption maximum (in CO): 400.6 nm
absorption maximum (in CS(C)=O): 384.6 nm
absorption maximum (in Cc1ccccc1): 393.5 nm
absorption maximum (in ClC(Cl)(Cl)Cl): 399.5 nm
absorption maximum (in ClC(Cl)Cl): 384 nm
absorption maximum (in ClCCl): 386.4 nm
absorption maximum (in c1ccccc1): 386.8 nm

SMILES: C(S/C=C/c1ccc(-c2ccc(/C=C/SC=C3CCCCC3)cc2)cc1)=C1CCCCC1
absorption maximum (in ClCCl): 351 nm

SMILES: CC1=C(C#Cc2ccc(N(c3ccccc3)c3ccccc3)cc2)C(C)=[N+]2C1=C(c1ccccc1)c1c(C)c(C#Cc3ccc(N(c4ccccc4)c4ccccc4)cc3)c(C)n1[B-]2(F)F
absorption maximum (in C1CCOC1): 593 nm

SMILES: CC(C)(C)c1ccc(-c2ccc3c(-c4ccc(C(C)(C)C)c5ccccc45)cc4c5cc(-c6ccc(C(C)(C)C)c7ccccc67)ccc5c(-c5ccc(C(C)(C)C)c6ccccc56)cc4c3c2)c2ccccc12
absorption maximum (in ClCCl): 300 nm

SMILES: O=C1c2ccc(N(c3ccc(-c4ccccc4)cc3)c3ccc(-c4ccccc4)cc3)cc2C(=O)c2ccc(N(c3ccc(-c4ccccc4)cc3)c3ccc(-c4ccccc4)cc3)cc21
absorption maximum (in Cc1ccccc1): 464 nm

SMILES: N#CC(C#N)=Cc1ccc(-c2ccc(N(c3ccccc3)c3ccccc3)cc2)s1
absorption maximum (in ClC(Cl)Cl): 506 nm

Other lines, results leading:

absorption maximum (in CC#N): 332 nm
SMILES: CN(C)c1ccc(-c2nc3cc(C(F)(F)F)ccc3n2-c2ccccc2)cc1

absorption maximum (in C1CCOC1): 685 nm
SMILES: CCc1nc2c(nc1CC)C(c1ccccc1)=[N+]1C2=Nc2c3nc(CC)c(CC)nc3c(-c3ccccc3)n2[B-]1(F)F

absorption maximum (in ClCCl): 499 nm
SMILES: CCCN1c2ccccc2Sc2cc(C3=C4C=CC=[N+]4[B-](F)(F)n4cccc43)ccc21

absorption maximum (in ClCCl): 334 nm
SMILES: CC(C)(C)NC(=O)c1cccc2ccc3c4cc(F)ccc4c4ccc(F)cc4c3c12

absorption maximum (in ClCCl): 378 nm
SMILES: CN(/N=C1\N=C(N)C2(CCCC2)c2ccccc21)c1ccccc1

absorption maximum (in C1CCOC1): 365 nm
SMILES: c1cc2ccc1-c1ccc(cc1)-c1ccc([se]1)-c1ccc(cc1)-c1ccc(cc1)-c1ccc([se]1)-c1ccc(cc1)-c1ccc(cc1)-c1ccc-2[se]1

absorption maximum (in ClC(Cl)Cl): 363 nm
SMILES: CCCCCCN1C(=O)c2cccc3c(-c4ccc([N+](=O)[O-])s4)ccc(c23)C1=O

absorption maximum (in C1COCCO1): 287 nm
SMILES: CCC(C)(C)c1ccc(-c2ccc(-c3ccccc3)cc2)cc1

absorption maximum (in CC#N): 351 nm
SMILES: O=c1oc2ccccc2cc1/C=C/c1ccccc1

absorption maximum (in O): 274 nm
SMILES: [NH3+]C(Cc1ccc(O)cc1)C(=O)[O-] (stereo not drawn)

absorption maximum (in ClCCl): 340 nm
SMILES: CCCCCCn1c2c(c3cc(-c4ccc5ccc6cccc7ccc4c5c67)ccc31)-c1c(c3cc(-c4ccc5ccc6cccc7ccc4c5c67)ccc3n1CCCCCC)-c1c(c3cc(-c4ccc5ccc6cccc7ccc4c5c67)ccc3n1CCCCCC)-c1c-2c2cc(-c3ccc4ccc5cccc6ccc3c4c56)ccc2n1CCCCCC

absorption maximum (in ClC(Cl)Cl): 487 nm
SMILES: Cc1cccc(C)c1-c1cc2c(C)c3c4cc5nc6ccc7c8c(C)c9cc(-c%10c(C)cccc%10C)c(-c%10c(C)cccc%10C)cc9c(C)c8c7c6nc5cc4c3c(C)c2cc1-c1c(C)cccc1C

absorption maximum (in ClCCl): 536 nm
SMILES: COc1ccc2cc(-c3cc(-c4ccccc4)c4n3[B-](F)(F)[N+]3=C5C=NC=CN5[B-](F)(F)[N+]3=C4)ccc2c1

absorption maximum (in ClC(Cl)Cl): 328 nm
SMILES: CCCCCCN1C(=O)c2cccc3cc(/N=C\c4cnc5ccccc5c4)cc(c23)C1=O

absorption maximum (in ClCCl): 301 nm
SMILES: CCCCCCCCCCCCCCCCn1c(-c2cc(-c3nc4ccccc4n3CCCCCCCCCCCCCCCC)cc(-c3nc4ccccc4n3CCCCCCCCCCCCCCCC)c2)nc2ccccc21

absorption maximum (in C1COCCO1): 334 nm
absorption maximum (in CC#N): 332 nm
absorption maximum (in CO): 331 nm
absorption maximum (in ClCCl): 330 nm
SMILES: COC(=O)c1nc2c(N(C)C)nc(N)nc2n1Cc1ccccc1

absorption maximum (in ClC(Cl)Cl): 423.73 nm
SMILES: CCCCCCn1c2cc(/C=C(\C#N)c3ccccc3)ccc2c2ccc(/C=C(\C#N)c3ccccc3)cc21

absorption maximum (in c1ccccc1): 357 nm
SMILES: CCOC(=O)CSc1nc(C)c(CC)c(C#N)c1C#N

absorption maximum (in C1CCCCC1): 345 nm
absorption maximum (in CO): 345 nm
SMILES: Cc1ccc(/C=C/c2nc3ccccc3s2)cc1
